The values that follow come from patent US7589104B2, “Tricyclic-bridged piperidinyline derivatives as §-opioid modulators” (Janssen Pharmaceutica NV, priority 2004, dated 2009).

Where two headings read alike, the source gives them in different places.

One assay has as its target T1, mu opioid receptor (Rattus norvegicus, UniProt P33535).
T1 construct: Following incubation with the mu selective peptide ligand, ˜0.8 nM [^3H]DAMGO; from tissue; host or cells: forebrain of male Wistar rats (Charles River)
As to the kind of experiment: Rat Brain Mu Opioid Receptor Binding Assay.

The target in assay [1] is T2, delta opioid receptor (Rattus norvegicus, UniProt P33533).
T2 construct: from tissue; host or cells: forebrain of male Wistar rats (Charles River)
As to the kind of experiment: Rat Brain Delta Opioid Receptor Binding Assay.

Assay [2] concerns the target T3, delta opioid receptor (Mus musculus, UniProt P32300).
T3 construct: NG108-15 cell membranes were purchased from Applied Cell Sciences (Rockville, Md.); host or cells: NG108-15 cell membranes (purchased)
As to the kind of experiment: [35S]GTPγS Binding Assay in NG108-15 Cell Membranes (Delta Opioid). In kind it is biochemical. The conditions noted are these: for delta GTPgS Rel Eff: relative efficacy. The method, then: Methods: NG108-15 cell membranes were purchased from Applied Cell Sciences (Rockville, Md.). 8 mg/mL of membrane protein suspended in 10 mM TRIS-HCl pH 7.2, 2 mM EDTA, 10% sucrose. Membranes were maintained at 4-8° C. A 1 mL volume of membranes was added into 10 mL cold binding assay buffer. The assay buffer contained 50 mM Tris, pH 7.6, 5 mM MgCl2, 100 mM NaCl, 1 mM DTT and 1 mM EGTA. The membrane suspension was homogenized twice with a Polytron, and centrifuged at 3000 rpm for 10 min. The supernatant was then centrifuged at 18,000 rpm for 20 min. Ten mL assay buffer was added into the pellet containing tube. The pellet and buffer were mixed with a Polytron.
Incubation procedure: The pellet membranes (75 μg/mL) were preincubated with SPA (10 mg/mL) at 25° C. for 45 min in the assay buffer. […] GTPγS in the same Tris buffer containing 100 μM GDP in total volume of 200 μL. Increasing concentrations of receptor agonists were used to stimulate [35S]- GTPγS binding. The basal binding was tested in the absence of agonists and non-specific binding was tested in the presence of 10 μM unlabeled GTPγS. The data were analyzed on a Packard Top Count.
% of Basal=(stimulated−non specific)*100/(basal−non specific). EC50 values were calculated using GraphPad Prism.
(GTPγS resists hydrolysis and so accumulates on activated G proteins.)

Where [3] appears, read: rat forebrain membranes, [3H]DAMGO, read-out: mu (Ki).
Setting [4] is: NG108-15 cell membranes, stimulation of [35S]GTPγS binding, read-out: delta GTPgS EC50.

T2 sequence (P33533 whole entry): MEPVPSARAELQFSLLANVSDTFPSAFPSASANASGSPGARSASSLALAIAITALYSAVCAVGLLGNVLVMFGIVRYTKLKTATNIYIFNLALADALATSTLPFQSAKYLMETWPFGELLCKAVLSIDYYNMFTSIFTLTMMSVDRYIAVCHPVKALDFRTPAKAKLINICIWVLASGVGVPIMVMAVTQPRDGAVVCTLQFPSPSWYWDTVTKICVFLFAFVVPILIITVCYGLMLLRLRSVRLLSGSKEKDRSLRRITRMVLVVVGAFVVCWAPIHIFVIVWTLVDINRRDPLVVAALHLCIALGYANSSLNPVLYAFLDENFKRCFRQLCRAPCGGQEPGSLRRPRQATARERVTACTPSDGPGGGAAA
T1 sequence (P33535 whole entry): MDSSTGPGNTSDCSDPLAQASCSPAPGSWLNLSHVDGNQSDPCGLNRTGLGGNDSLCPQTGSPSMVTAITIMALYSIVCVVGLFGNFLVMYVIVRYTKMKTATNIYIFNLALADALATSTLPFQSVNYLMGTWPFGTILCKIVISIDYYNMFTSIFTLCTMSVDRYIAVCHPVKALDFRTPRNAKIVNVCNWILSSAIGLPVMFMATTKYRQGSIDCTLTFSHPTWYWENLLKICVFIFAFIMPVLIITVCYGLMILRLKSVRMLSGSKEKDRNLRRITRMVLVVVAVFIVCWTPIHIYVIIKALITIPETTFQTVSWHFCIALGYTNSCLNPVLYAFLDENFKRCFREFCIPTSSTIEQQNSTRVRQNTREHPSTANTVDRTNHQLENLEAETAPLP
T3 sequence (P32300 whole entry): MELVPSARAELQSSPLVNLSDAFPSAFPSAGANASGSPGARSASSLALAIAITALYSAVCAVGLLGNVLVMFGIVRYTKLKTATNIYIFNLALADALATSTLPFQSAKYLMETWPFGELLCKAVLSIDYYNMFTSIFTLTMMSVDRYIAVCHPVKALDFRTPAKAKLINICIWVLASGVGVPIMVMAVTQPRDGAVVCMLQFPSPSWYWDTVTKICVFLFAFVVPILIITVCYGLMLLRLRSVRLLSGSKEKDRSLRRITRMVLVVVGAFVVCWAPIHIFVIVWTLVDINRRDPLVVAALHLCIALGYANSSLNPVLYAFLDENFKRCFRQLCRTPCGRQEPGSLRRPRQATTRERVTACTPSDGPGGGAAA

Turning to “9-(8-Furan-3-ylmethyl-8-aza-bicyclo[3.2.1]oct-3-ylidene)-9H-xanthene-3-carboxylic acid diethylamide [Compound 10a]”, the Ki on mu opioid receptor (setting [3]) came out at 546 nM; at delta opioid receptor [1] (rat forebrain membranes, [3H]DPDPE or [3H]naltrindole, read-out: delta (Ki)), 12.3 nM. Besides, on delta opioid receptor [2] (NG108-15 cell membranes), the “delta GTPgS Rel Eff” value is on record as 0.75. At delta opioid receptor [2] (setting [4]), the EC50 was 21.1 nM.

For the compound `CCN(CC)C(=O)c1ccc2c(c1)Oc1c(OC)cccc1C2C1CC2CCC(C1)N2` (stereo not shown) [Compound 7c, 9-(8-Aza-bicyclo[3.2.1]oct-3-yl)-5-methoxy-9H-xanthene-3-carboxylic acid diethylamide], the Ki was found to be 463 nM at mu opioid receptor and 3.1 nM on delta opioid receptor [1]. The EC50 on delta opioid receptor [2] was found to be 29.2 nM. The “delta GTPgS Rel Eff” value at delta opioid receptor [2] (NG108-15 cell membranes) turned out to be 0.80.

As to `CCN(CC)C(=O)c1ccc2c(c1)Oc1c(O)cccc1C2C1CC2CCC(C1)N2` (stereo not shown) [Compound 8c, 9-(8-Aza-bicyclo[3.2.1]oct-3-yl)-5-hydroxy-9H-xanthene-3-carboxylic acid diethylamide], the results for the Ki at mu opioid receptor and on delta opioid receptor [1] were 75 nM and 1.29 nM, respectively. The same compound registered an EC50 at delta opioid receptor [2] of 5 nM. Moreover, on delta opioid receptor [2] (NG108-15 cell membranes), the “delta GTPgS Rel Eff” value is given as 0.85.

For `CCN(CC)C(=O)c1ccc2c(c1)Oc1c(O)cccc1C2C1CC2CCC(C1)N2Cc1ccoc1` (stereo not shown) [Compound 9c, 9-(8-Furan-3-ylmethyl-8-aza-bicyclo[3.2.1]oct-3-yl)-5-hydroxy-9H-xanthene-3-carboxylic acid diethylamide], the Ki at mu opioid receptor was found to be 73 nM; on delta opioid receptor [1], 0.73 nM. The EC50 at delta opioid receptor [2] is 4.6 nM. Besides, the “delta GTPgS Rel Eff” value at delta opioid receptor [2] (NG108-15 cell membranes) is recorded as 1.02.

Take `CCN(CC)C(=O)c1ccc2c(c1)Oc1c(O)cccc1C2C1CC2CCC(C1)N2Cc1ncc[nH]1` (stereo not shown) [Compound 10c, 5-Hydroxy-9-[8-(1H-imidazol-2-ylmethyl)-8-aza-bicyclo[3.2.1]oct-3-yl]-9H-xanthene-3-carboxylic acid diethylamide]: the Ki came out at 70 nM at mu opioid receptor and 0.32 nM on delta opioid receptor [1]. Further, the EC50 at delta opioid receptor [2] is 6.4 nM. Moreover, the “delta GTPgS Rel Eff” value at delta opioid receptor [2] (NG108-15 cell membranes) worked out at 0.94.

As for `CCN(CC)C(=O)c1ccc2c(c1)Oc1ccccc1C2C1CC2CCC(C1)N2Cc1ccccc1` (stereo not shown) [Compound 11a, 9-(8-Benzyl-8-aza-bicyclo[3.2.1]oct-3-yl)-9H-xanthene-3-carboxylic acid diethylamide], the Ki is 1120 nM at mu opioid receptor and 19.9 nM at delta opioid receptor [1]. At delta opioid receptor [2], this compound came in with an EC50 of 118 nM. For the same compound, on delta opioid receptor [2] (NG108-15 cell membranes), the “delta GTPgS Rel Eff” value turned out to be 0.78.

Regarding `CCN(CC)C(=O)c1ccc2c(c1)Oc1ccccc1C2C1CC2CCC(C1)N2Cc1cccs1` (stereo not shown) [Compound 14a, 9-(8-Thiophen-2-ylmethyl-8-aza-bicyclo[3.2.1]oct-3-yl)-9H-xanthene-3-carboxylic acid diethylamide], the values for the Ki at mu opioid receptor and on delta opioid receptor [1] were 1650 nM and 18.7 nM, respectively. At delta opioid receptor [2], the EC50 worked out at 96.9 nM. In addition, the “delta GTPgS Rel Eff” value on delta opioid receptor [2] (NG108-15 cell membranes) turned out to be 0.65.

For the compound `CCN(CC)C(=O)c1ccc2c(c1)Oc1ccccc1C2C1CC2CCC(C1)N2Cc1ccccn1` (stereo not shown) [Compound 15a, 9-(8-Pyridin-2-ylmethyl-8-aza-bicyclo[3.2.1]oct-3-yl)-9H-xanthene-3-carboxylic acid diethylamide], the Ki on mu opioid receptor (setting [3]) stood at 1410 nM; on delta opioid receptor [1], 11.1 nM. For the same compound, at delta opioid receptor [2] (setting [4]), the EC50 is 155 nM.

As for `c1ccc2c(c1)Oc1cc(-c3ccncc3)ccc1C2C1CC2CCC(C1)N2` (stereo not shown) [Compound 20b, 3-(3-Pyridin-4-yl-9H-xanthen-9-yl)-8-aza-bicyclo[3.2.1]octane], the Ki at mu opioid receptor amounted to 3490 nM; at delta opioid receptor [1], 194 nM.

Consider `c1csc(CN2C3CCC2CC(C2c4ccccc4Oc4cc(-c5ccncc5)ccc42)C3)c1` (stereo not shown) [Compound 21b, 3-(3-Pyridin-4-yl-9H-xanthen-9-yl)-8-thiophen-2-ylmethyl-8-aza-bicyclo[3.2.1]octane], for which the Ki amounted to 930 nM at mu opioid receptor and 98 nM on delta opioid receptor [1].

For `c1ccc(CN2C3CCC2CC(C2c4ccccc4Oc4cc(-c5ccncc5)ccc42)C3)nc1` (stereo not shown) [Compound 22b, 8-Pyridin-2-ylmethyl-3-(3-pyridin-4-yl-9H-xanthen-9-yl)-8-aza-bicyclo[3.2.1]octane], the results for the Ki on mu opioid receptor and at delta opioid receptor [1] were 305 nM and 71.6 nM, respectively.

`c1ccc(CN2C3CCC2CC(C2c4ccccc4Oc4cc(-c5ccncc5)ccc42)C3)cc1` (stereo not shown) [Compound 23b, 8-Benzyl-3-(3-pyridin-4-yl-9H-xanthen-9-yl)-8-aza-bicyclo[3.2.1]octane]: the Ki on mu opioid receptor was 890 nM; at delta opioid receptor [1], 99.7 nM.

For the compound `c1ccc(CCN2C3CCC2CC(C2c4ccccc4Oc4cc(-c5ccncc5)ccc42)C3)cc1` (stereo not shown) [Compound 24b, 8-Phenethyl-3-(3-pyridin-4-yl-9H-xanthen-9-yl)-8-aza-bicyclo[3.2.1]octane], the results for the Ki on mu opioid receptor and at delta opioid receptor [1] were 196 nM and 1590 nM, respectively.

With `c1ccc2c(c1)Oc1cc(-c3ccncc3)ccc1C2C1CC2CCC(C1)N2Cc1ccoc1` (stereo not shown) [Compound 25b, 8-Furan-3-ylmethyl-3-(3-pyridin-4-yl-9H-xanthen-9-yl)-8-aza-bicyclo[3.2.1]octane], the Ki at mu opioid receptor worked out at 775 nM; on delta opioid receptor [1], 22.4 nM.
